Experimental data from PubChem BioAssay (NCI).
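The compound was tested at five concentrations on cells cultured in 96-well plates, with a 48-hour exposure period. The concentration for full growth arrest is given as TGI.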

Legend:
Test in all cases: NCI anticancer screen, dose series, 48 h
U251 CNS = tested on: U251 CNS
SF-295 CNS = tested on: SF-295 CNS
HCT-15 colon = tested on: HCT-15 colon
TK-10 renal = tested on: TK-10 renal
NCI-H226 lung = tested on: NCI-H226 lung
OVCAR-5 ovarian = tested on: OVCAR-5 ovarian
HT29 colon = tested on: HT29 colon
SNB-19 CNS = tested on: SNB-19 CNS
SR leukemia = tested on: SR leukemia
COLO 205 colon = tested on: COLO 205 colon
A549 NSCLC = tested on: A549 NSCLC
SK-MEL-5 melanoma = tested on: SK-MEL-5 melanoma
UO-31 renal = tested on: UO-31 renal
DMS 114 small cell lung = tested on: DMS 114 small cell lung
RPMI-8226 leukemia = tested on: RPMI-8226 leukemia
HOP-18 NSCLC = tested on: HOP-18 NSCLC
LOX IMVI melanoma = tested on: LOX IMVI melanoma
ACHN renal = tested on: ACHN renal
IGROV1 ovarian = tested on: IGROV1 ovarian
SW-620 colon = tested on: SW-620 colon
SF-268 CNS = tested on: SF-268 CNS
SN12C renal = tested on: SN12C renal
K-562 leukemia = tested on: K-562 leukemia
MOLT-4 leukemia = tested on: MOLT-4 leukemia
OVCAR-8 ovarian = tested on: OVCAR-8 ovarian
KM12 colon = tested on: KM12 colon
NCI-H23 lung = tested on: NCI-H23 lung
HCT-116 colon = tested on: HCT-116 colon
KM20L2 colon = tested on: KM20L2 colon
NCI-H460 lung = tested on: NCI-H460 lung
HL-60(TB) leukemia = tested on: HL-60(TB) leukemia
SK-MEL-2 melanoma = tested on: SK-MEL-2 melanoma
CAKI-1 renal = tested on: CAKI-1 renal
LXFL 529 NSCLC = tested on: LXFL 529 NSCLC
SK-MEL-28 melanoma = tested on: SK-MEL-28 melanoma
DMS 273 small cell lung = tested on: DMS 273 small cell lung
CCRF-CEM leukemia = tested on: CCRF-CEM leukemia
SF-539 CNS = tested on: SF-539 CNS
M19-MEL melanoma = tested on: M19-MEL melanoma
SK-OV-3 ovarian = tested on: SK-OV-3 ovarian
HCC-2998 colon = tested on: HCC-2998 colon
SNB-78 CNS = tested on: SNB-78 CNS
DLD-1 colon = tested on: DLD-1 colon
M14 melanoma = tested on: M14 melanoma
SNB-75 CNS = tested on: SNB-75 CNS
786-0 renal = tested on: 786-0 renal
OVCAR-3 ovarian = tested on: OVCAR-3 ovarian
UACC-62 melanoma = tested on: UACC-62 melanoma
XF 498 CNS = tested on: XF 498 CNS
HOP-62 NSCLC = tested on: HOP-62 NSCLC
UACC-257 melanoma = tested on: UACC-257 melanoma
RXF 393 renal = tested on: RXF 393 renal
RXF-631 renal = tested on: RXF-631 renal
OVCAR-4 ovarian = tested on: OVCAR-4 ovarian
HOP-92 NSCLC = tested on: HOP-92 NSCLC
EKVX NSCLC = tested on: EKVX NSCLC
MDA-N = tested on: MDA-N
MDA-MB-435 = tested on: MDA-MB-435
NCI-H522 lung = tested on: NCI-H522 lung
DU-145 prostate = tested on: DU-145 prostate
NCI/ADR-RES ovarian = tested on: NCI/ADR-RES ovarian
BT-549 breast = tested on: BT-549 breast
HS 578T breast = tested on: HS 578T breast
PC-3 prostate = tested on: PC-3 prostate
A498 renal = tested on: A498 renal
T-47D breast = tested on: T-47D breast
MALME-3M melanoma = tested on: MALME-3M melanoma
MCF7 breast = tested on: MCF7 breast
MDA-MB-231 breast = tested on: MDA-MB-231 breast

## COc1ccc(C2(Cl)C(Cl)(C(F)(F)F)C2(Cl)C(F)(F)F)cc1 (stereo not given)
U251 CNS
  TGI: 28.2 µM
SF-295 CNS
  TGI: 29 µM
HCT-15 colon
  TGI: 29.6 µM
TK-10 renal
  TGI: 32 µM
NCI-H226 lung
  TGI: 28.9 µM
OVCAR-5 ovarian
  TGI: 27 µM
HT29 colon
  TGI: 27.8 µM
SNB-19 CNS
  TGI: 29.1 µM
SR leukemia
  TGI: 30.7 µM
COLO 205 colon
  TGI: 29.3 µM
A549 NSCLC
  TGI: 28.1 µM
SK-MEL-5 melanoma
  TGI: 22.1 µM
UO-31 renal
  TGI: 29.5 µM
DMS 114 small cell lung
  TGI: 25 µM
RPMI-8226 leukemia
  TGI: 34.8 µM
HOP-18 NSCLC
  TGI: 28.6 µM
LOX IMVI melanoma
  TGI: 20.5 µM
ACHN renal
  TGI: 30.4 µM
IGROV1 ovarian
  TGI: 30.8 µM
SW-620 colon
  TGI: 33.1 µM
SF-268 CNS
  TGI: 29 µM
SN12C renal
  TGI: 29.2 µM
K-562 leukemia
  TGI: > 100 µM
MOLT-4 leukemia
  TGI: 15 µM
OVCAR-8 ovarian
  TGI: 25.2 µM
KM12 colon
  TGI: 27 µM
NCI-H23 lung
  TGI: 27.8 µM
HCT-116 colon
  TGI: 23.9 µM
KM20L2 colon
  TGI: 28.9 µM
NCI-H460 lung
  TGI: 30.2 µM
HL-60(TB) leukemia
  TGI: 54.9 µM
SK-MEL-2 melanoma
  TGI: 27.2 µM
CAKI-1 renal
  TGI: 29.5 µM
LXFL 529 NSCLC
  TGI: 27.1 µM
SK-MEL-28 melanoma
  TGI: 29 µM
DMS 273 small cell lung
  TGI: 27.4 µM
CCRF-CEM leukemia
  TGI: 33.2 µM
SF-539 CNS
  TGI: 28.9 µM
M19-MEL melanoma
  TGI: 26.5 µM
SK-OV-3 ovarian
  TGI: 31.2 µM
HCC-2998 colon
  TGI: 29.8 µM
SNB-78 CNS
  TGI: 29.7 µM
DLD-1 colon
  TGI: 29.4 µM
M14 melanoma
  TGI: 24.2 µM
SNB-75 CNS
  TGI: 28 µM
786-0 renal
  TGI: 31 µM
OVCAR-3 ovarian
  TGI: 28.8 µM
UACC-62 melanoma
  TGI: 26.4 µM
XF 498 CNS
  TGI: 25.5 µM
HOP-62 NSCLC
  TGI: 32.5 µM
UACC-257 melanoma
  TGI: 26.5 µM
RXF 393 renal
  TGI: 24.6 µM
RXF-631 renal
  TGI: 30.3 µM
OVCAR-4 ovarian
  TGI: 30 µM
HOP-92 NSCLC
  TGI: 27.1 µM
EKVX NSCLC
  TGI: 31.6 µM

## CC1(C)C(=O)/C=C\C(=O)C(C)(C)C2=CC=C(O2)C(C)(C)C(=O)C(Br)C(Br)C(=O)C(C)(C)C2=CC=C1O2 (stereo not given)
U251 CNS
  TGI: > 81.8 µM
SF-295 CNS
  TGI: > 100 µM
HCT-15 colon
  TGI: > 100 µM
TK-10 renal
  TGI: > 100 µM
NCI-H226 lung
  TGI: > 100 µM
OVCAR-5 ovarian
  TGI: > 100 µM
HT29 colon
  TGI: > 100 µM
SNB-19 CNS
  TGI: > 100 µM
SR leukemia
  TGI: 5.62 µM
COLO 205 colon
  TGI: > 100 µM
A549 NSCLC
  TGI: > 100 µM
MDA-N
  TGI: > 100 µM
SK-MEL-5 melanoma
  TGI: > 100 µM
UO-31 renal
  TGI: > 100 µM
DMS 114 small cell lung
  TGI: > 31.6 µM
RPMI-8226 leukemia
  TGI: 9.56 µM
HOP-18 NSCLC
  TGI: > 100 µM
LOX IMVI melanoma
  TGI: > 59.6 µM
ACHN renal
  TGI: > 46.4 µM
IGROV1 ovarian
  TGI: > 85.6 µM
SW-620 colon
  TGI: 31.1 µM
SF-268 CNS
  TGI: > 100 µM
SN12C renal
  TGI: > 100 µM
K-562 leukemia
  TGI: 45.4 µM
MOLT-4 leukemia
  TGI: 30.6 µM
MDA-MB-435
  TGI: > 100 µM
OVCAR-8 ovarian
  TGI: 40.1 µM
KM12 colon
  TGI: > 100 µM
NCI-H23 lung
  TGI: > 100 µM
NCI-H522 lung
  TGI: 59.6 µM
HCT-116 colon
  TGI: 65.6 µM
KM20L2 colon
  TGI: > 100 µM
DU-145 prostate
  TGI: > 100 µM
NCI-H460 lung
  TGI: > 100 µM
HL-60(TB) leukemia
  TGI: 18.1 µM
SK-MEL-2 melanoma
  TGI: > 100 µM
CAKI-1 renal
  TGI: > 100 µM
LXFL 529 NSCLC
  TGI: > 100 µM
SK-MEL-28 melanoma
  TGI: > 100 µM
NCI/ADR-RES ovarian
  TGI: 90.2 µM
DMS 273 small cell lung
  TGI: > 100 µM
CCRF-CEM leukemia
  TGI: 11.2 µM
SF-539 CNS
  TGI: > 100 µM
M19-MEL melanoma
  TGI: > 100 µM
SK-OV-3 ovarian
  TGI: > 100 µM
HCC-2998 colon
  TGI: > 100 µM
SNB-78 CNS
  TGI: > 100 µM
BT-549 breast
  TGI: 76.5 µM
DLD-1 colon
  TGI: 87.2 µM
M14 melanoma
  TGI: > 87 µM
SNB-75 CNS
  TGI: > 80.3 µM
786-0 renal
  TGI: > 100 µM
OVCAR-3 ovarian
  TGI: 68.9 µM
UACC-62 melanoma
  TGI: 49.3 µM
XF 498 CNS
  TGI: > 100 µM
HS 578T breast
  TGI: > 100 µM
PC-3 prostate
  TGI: > 100 µM
HOP-62 NSCLC
  TGI: > 100 µM
UACC-257 melanoma
  TGI: > 100 µM
RXF 393 renal
  TGI: > 83.8 µM
A498 renal
  TGI: > 100 µM
T-47D breast
  TGI: > 100 µM
RXF-631 renal
  TGI: > 100 µM
MALME-3M melanoma
  TGI: > 100 µM
MCF7 breast
  TGI: > 100 µM
OVCAR-4 ovarian
  TGI: > 100 µM
HOP-92 NSCLC
  TGI: > 100 µM
EKVX NSCLC
  TGI: > 100 µM
MDA-MB-231 breast
  TGI: > 86.7 µM
